From patent US8835422B2, “Substituted imidazoheterocycle derivatives” (Cara Therapeutics, Inc., priority 2008, dated 2014)

Assays:
Type in all cases: cell-based
rat CB2 receptor (rCB2) = target: T1, rat CB2 receptor (rCB2) (Rattus norvegicus, UniProt Q9QZN9); experiment: cAMP assay (LANCE TR-FRET) in CHO-K1 cells expressing rat CB2
T1 construct: expressed in transfected cells; host or cells: CHO-K1 (plasmid pcDNA3.1)
T1 sequence (Q9QZN9 1-360): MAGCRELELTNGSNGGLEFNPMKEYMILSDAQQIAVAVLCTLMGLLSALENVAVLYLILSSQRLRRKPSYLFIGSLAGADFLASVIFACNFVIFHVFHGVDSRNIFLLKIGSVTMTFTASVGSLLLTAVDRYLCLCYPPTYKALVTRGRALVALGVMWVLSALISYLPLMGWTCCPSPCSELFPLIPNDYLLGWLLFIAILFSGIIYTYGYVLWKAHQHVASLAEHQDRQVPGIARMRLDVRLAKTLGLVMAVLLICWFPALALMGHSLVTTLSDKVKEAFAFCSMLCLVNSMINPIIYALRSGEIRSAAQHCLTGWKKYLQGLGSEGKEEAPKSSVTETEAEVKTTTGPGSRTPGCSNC
Description: (§1) The ability of compounds to act as agonists or inverse agonists at human CB2 and CB1 receptors (hCB2, hCB1, respectively) and at the rat CB2 receptor (rCB2) was determined by measuring changes in intracellular cAMP levels. Chinese Hamster Ovary (CHO-K1) cell lines stably expressing hCB2 (Genebank: X74328) or hCB1 (Genebank: X54937) were purchased from Euroscreen (Gosselies, Belgium). The rat CB2 receptor was expressed from genomic DNA (provided by M. Abood, California Pacific Medical Center) in CHO-K1 cells from expression plasmid vector, pcDNA3.1.
(§2) Receptor mediated responses were determined by measuring changes in intracellular cAMP using LANCE cAMP detection kit (cat #AD0264, Perkin Elmer, Wellesley, Mass.) based on time-resolved fluorescence resonance energy transfer (TR-FRET).
(§3) On the day of the experiment, cells were spun at low speed for 5 min at room temperature. […] Cell clumps were removed by filtering through cell strainer 40 μm (BD Falcon, Discovery Labware, Bedford, Mass.) and diluted to 2×10^5 cells/mL. Antibody supplied with the LANCE cAMP immunoassay kit was then added according to the manufacturer's instructions. An aliquot of cells was taken for un-induced controls. […] Cells were then incubated for 30 min at room temperature prior to adding to Proxiplates containing test compounds (final DMSO concentration was less than 0.5%) with a Multidrop bulk dispenser, followed by a sixty minute incubation at room temperature. The response was stopped by addition of the detection mix supplied with the LANCE kit. The reagents were allowed to equilibrate for three hours prior to reading on an Envision multi-mode detector (Perkin-Elmer). TR-FRET was measured using a 330-380 nm excitation filter, a 665 nm emission filter, dichroic mirror 380 nm and Z=1 mm. Cyclic AMP concentrations in each well were back-calculated from a cAMP standard curve run concurrently during each assay. Each plate contained 16 wells of forskolin stimulated cells and 16 wells of forskolin plus CP55,940-treated cells. […] Concentrations of cAMP were expressed as a percent of the difference of these two groups of wells.

[1] = target: T2, human CB2 receptor (hCB2) (Homo sapiens, UniProt P34972); experiment: cAMP assay (LANCE TR-FRET) in CHO-K1 cells stably expressing hCB2
T2 construct: host or cells: CHO-K1
Description: as §1, §2, §3

[2] = target: human CB1 receptor (hCB1) (Homo sapiens, UniProt P21554); experiment: cAMP assay (LANCE TR-FRET) in CHO-K1 cells stably expressing hCB1
Description: as §1, §2, §3

T2 sequence (P34972 whole entry): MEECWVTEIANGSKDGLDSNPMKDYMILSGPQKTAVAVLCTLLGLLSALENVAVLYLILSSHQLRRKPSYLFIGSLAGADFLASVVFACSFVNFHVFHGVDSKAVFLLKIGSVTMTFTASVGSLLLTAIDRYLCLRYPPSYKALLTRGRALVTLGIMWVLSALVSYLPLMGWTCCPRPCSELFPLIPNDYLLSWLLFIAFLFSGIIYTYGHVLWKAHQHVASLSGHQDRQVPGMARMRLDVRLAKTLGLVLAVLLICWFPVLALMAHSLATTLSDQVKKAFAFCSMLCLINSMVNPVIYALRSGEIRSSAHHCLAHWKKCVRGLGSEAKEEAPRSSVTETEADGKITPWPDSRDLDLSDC
Chain of human CB1 receptor (hCB1) (P21554 whole entry): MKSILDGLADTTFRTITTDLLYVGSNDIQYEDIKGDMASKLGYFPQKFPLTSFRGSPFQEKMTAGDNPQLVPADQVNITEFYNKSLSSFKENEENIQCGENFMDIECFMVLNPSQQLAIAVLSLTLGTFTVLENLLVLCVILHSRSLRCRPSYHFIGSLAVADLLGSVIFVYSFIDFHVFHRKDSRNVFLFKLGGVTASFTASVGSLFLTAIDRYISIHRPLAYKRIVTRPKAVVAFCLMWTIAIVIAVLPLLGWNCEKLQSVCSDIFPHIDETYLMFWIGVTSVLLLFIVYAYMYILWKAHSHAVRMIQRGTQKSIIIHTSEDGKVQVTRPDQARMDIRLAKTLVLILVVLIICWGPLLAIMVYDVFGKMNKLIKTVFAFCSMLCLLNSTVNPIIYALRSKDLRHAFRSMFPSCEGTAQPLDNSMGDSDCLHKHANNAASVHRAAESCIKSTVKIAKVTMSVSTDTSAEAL

SMILES | EC50 (rat CB2 receptor (rCB2)) [nM] | EC50 [1] [nM] | EC50 [2] [nM]
CNC(=O)[C@@H](NC(=O)c1nc(-c2ccccc2)n2c1CCN(CC(C)C)CC2)C(C)(C)C [Compound 3-10, (S)-N-(3,3-dimethyl-1-(methylamino)-1-oxobutan-2-yl)-7-isobutyl-3-phenyl-6,7,8,9-tetrahydro-5H-imidazo[1,5-d][1,4]diazepine-1-carboxamide] | 10 to 100 |  | 
CC(C)(C)[C@H](NC(=O)c1nc(-c2ccc(F)c(F)c2)n2c1COCCC2)C(=O)NCCO [Compound 1-11, (S)-3-(3,4-difluorophenyl)-N-(1-(2-hydroxyethylamino)-3,3-dimethyl-1-oxobutan-2-yl)-5,6,7,9-tetrahydroimidazo[5,1-c][1,4]oxazepine-1-carboxamide] |  | 10 to 100 | 
O=C(N[C@@H]1CCCc2ccccc21)c1nc(-c2ccc(F)c(F)c2)n2c1CCCCC2 [Compound 1-21, (R)-3-(3,4-difluorophenyl)-N-(1,2,3,4-tetrahydronaphthalen-1-yl)-6,7,8,9-tetrahydro-5H-imidazo[1,5-a]azepine-1-carboxamide] |  | 0.1 to 10 | 
CNC(=O)[C@@H](NC(=O)c1nc(-c2ccc(F)c(F)c2)n2c1CCCC2)C(C)(C)C [Compound 1-7, (S)-3-(3,4-difluorophenyl)-N-(3,3-dimethyl-1-(methyl-amino)-1-oxobutan-2-yl)-5,6,7,8-tetrahydroimidazo[1,5-a]pyridine-1-carboxamide] |  | 0.1 to 10 | 0.1 to 10
O=C(N[C@H]1c2ccccc2C[C@H]1O)c1nc(-c2ccc(F)c(F)c2)n2c1CCCCC2 [Compound 1-18, 3-(3,4-difluorophenyl)-N-((1S,2R)-2-hydroxy-2,3-dihydro-1H-inden-1-yl)-6,7,8,9-tetrahydro-5H-imidazo[1,5-a]azepine-1-carboxamide] |  | 0.1 to 10 | 10 to 100
O=C(N[C@@H]1c2ccccc2C[C@H]1O)c1nc(-c2ccc(F)c(F)c2)n2c1CCCCC2 [Compound 1-17, 3-(3,4-difluorophenyl)-N-((1R,2R)-2-hydroxy-2,3-dihydro-1H-inden-1-yl)-6,7,8,9-tetrahydro-5H-imidazo[1,5-a]azepine-1-carboxamide] |  | 10 to 100 | 10 to 100
O=C(N[C@@H]1c2ccccc2C[C@@H]1O)c1nc(-c2ccc(F)c(F)c2)n2c1CCCCC2 [Compound 1-16, 3-(3,4-difluorophenyl)-N-((1R,2S)-2-hydroxy-2,3-dihydro-1H-inden-1-yl)-6,7,8,9-tetrahydro-5H-imidazo[1,5-a]azepine-1-carboxamide] |  | 10 to 100 | 10 to 100
CNC(=O)[C@@H](NC(=O)c1nc(-c2cc(F)ccc2F)n2c1COCCC2)C(C)(C)C [Compound 1-12, (S)-3-(2,5-difluorophenyl)-N-(3,3-dimethyl-1-(methylamino)-1-oxobutan-2-yl)-5,6,7,9-tetrahydroimidazo[5,1-c][1,4]oxazepine-1-carboxamide] |  | 0.1 to 10 | 0.1 to 10
CC(C)(C)[C@H](NC(=O)c1nc(-c2ccccc2)n2c1CCCCC2)C(=O)NCCF [Compound 1-22, (S)—N-(1-(2-fluoroethylamino)-3,3-dimethyl-1-oxobutan-2-yl)-3-phenyl-6,7,8,9-tetrahydro-5H-imidazo[1,5-a]azepine-1-carboxamide] |  | 0.1 to 10 | 10 to 100
CNC(=O)[C@@H](NC(=O)c1nc(-c2ccccc2)n2c1CCOCC2)C(C)(C)C [Compound 1-8, (S)—N-(3,3-dimethyl-1-(methylamino)-1-oxobutan-2-yl)-3-phenyl-5,6,8,9-tetrahydroimidazo[1,5-d][1,4]oxazepine-1-carboxamide] |  | 10 to 100 | 
CC[C@H](C)[C@H](NC(=O)c1nc(-c2ccc(F)c(F)c2)n2c1CCCCC2)C(N)=O [Compound 1-14, N-((2S,3S)-1-amino-3-methyl-1-oxopentan-2-yl)-3-(3,4-difluorophenyl)-6,7,8,9-tetrahydro-5H-imidazo[1,5-a]azepine-1-carboxamide] |  | 0.1 to 10 | 0.1 to 10
O=C(N[C@H]1c2ccccc2C[C@@H]1O)c1nc(-c2ccc(F)c(F)c2)n2c1CCCCC2 [Compound 1-15, 3-(3,4-difluorophenyl)-N-((1S,2S)-2-hydroxy-2,3-dihydro-1H-inden-1-yl)-6,7,8,9-tetrahydro-5H-imidazo[1,5-a]azepine-1-carboxamide] |  | 0.1 to 10 | 
CC(C)(C)[C@H](NC(=O)c1nc(-c2cc(F)ccc2F)n2c1CCCCC2)C(=O)N1CCC1 [Compound 1-5, (S)—N-(1-(azetidin-1-yl)-3,3-dimethyl-1-oxobutan-2-yl)-3-(2,5-difluorophenyl)-6,7,8,9-tetrahydro-5H-imidazo[1,5-a]azepine-1-carboxamide] |  | 0.1 to 10 | 0.1 to 10
O=C(N[C@H]1CCCc2ccccc21)c1nc(-c2ccc(F)c(F)c2)n2c1CCCCC2 [Compound 1-20, (S)-3-(3,4-difluorophenyl)-N-(1,2,3,4-tetrahydronaphthalen-1-yl)-6,7,8,9-tetrahydro-5H-imidazo[1,5-a]azepine-1-carboxamide] |  | 0.1 to 10 | 
COC(=O)[C@@H](NC(=O)c1nc(-c2ccccc2)n2c1CCCCC2)C(C)(C)C [Compound 1-24, (S)-methyl 3,3-dimethyl-2-(3-phenyl-6,7,8,9-tetrahydro-5H-imidazo[1,5-a]azepine-1-carboxamido)butanoate] |  | 0.1 to 10 | 0.1 to 10
CNC(=O)[C@@H](NC(=O)c1nc(-c2ccc(F)c(F)c2)n2c1CN(C)C(C)CC2)C(C)(C)C (single isomer, unassigned) [Compound 2-4] |  | 10 to 100 | 
CNC(=O)[C@@H](NC(=O)c1nc(-c2ccc(F)c(F)c2)n2c1CN(C)CC(C)(C)C2)C(C)(C)C [Compound 2-1, (S)-3-(3,4-difluorophenyl)-N-(3,3-dimethyl-1-(methylamino)-1-oxobutan-2-yl)-6,6,8-trimethyl-6,7,8,9-tetrahydro-5H-imidazo[1,5-a][1,4]diazepine-1-carboxamide] |  | 10 to 100 | 
CC(C)(C)[C@@H](CO)NC(=O)c1nc(-c2ccc(F)c(F)c2)n2c1CCCCC2 [Compound 1-6, (S)-3-(3,4-difluorophenyl)-N-(1-hydroxy-3,3-dimethylbutan-2-yl)-6,7,8,9-tetrahydro-5H-imidazo[1,5-a]azepine-1-carboxamide] |  | 0.1 to 10 | 
O=C(NC1CCc2ccccc21)c1nc(-c2ccc(F)c(F)c2)n2c1CCCCC2 (stereo not drawn) [Compound 1-19, 3-(3,4-difluorophenyl)-N-(2,3-dihydro-1H-inden-1-yl)-6,7,8,9-tetrahydro-5H-imidazo[1,5-a]azepine-1-carboxamide] |  | 0.1 to 10 | 
COC(=O)[C@@H](NC(=O)c1nc(-c2ccc(F)c(F)c2)n2c1CCCCC2)C(C)(C)C [Compound 1-23, (S)-methyl 2-(3-(3,4-difluorophenyl)-6,7,8,9-tetrahydro-5H-imidazo[1,5-a]azepine-1-carboxamido)-3,3-dimethylbutanoate] |  | 0.1 to 10 | 0.1 to 10
CNC(=O)[C@@H](NC(=O)c1nc(-c2ccc(Cl)cc2F)n2c1COCCC2)C(C)(C)C [Compound 1-13, (S)-3-(4-chloro-2-fluorophenyl)-N-(3,3-dimethyl-1-(methylamino)-1-oxobutan-2-yl)-5,6,7,9-tetrahydroimidazo[5,1-c][1,4]oxazepine-1-carboxamide] |  | 0.1 to 10 | 0.1 to 10
CC(C)(C)[C@H](NC(=O)c1nc(-c2ccccc2)n2c1CCCCC2)C(=O)N1CCC1 [Compound 1-4, (S)—N-(1-(azetidin-1-yl)-3,3-dimethyl-1-oxobutan-2-yl)-3-phenyl-6,7,8,9-tetrahydro-5H-imidazo[1,5-a]azepine-1-carboxamide] |  | 0.1 to 10 | 10 to 100
CCN1Cc2c(C(=O)N[C@H](C(=O)NC)C(C)(C)C)nc(-c3ccc(F)c(F)c3)n2CC(C)C1 (mixture of isomers) [Compound 2-3, (S)-3-(3,4-difluorophenyl)-N-(3,3-dimethyl-1-(methylamino)-1-oxobutan-2-yl)-8-ethyl-6-methyl-6,7,8,9-tetrahydro-5H-imidazo[1,5-a][1,4]diazepine-1-carboxamide] |  | 10 to 100 | 10 to 100
